{
  "source": "patent US7880025B2",
  "about": "“Ruthenium silyl-arene complex , and method for production thereof” (Takasago International Corporation, priority 2009, dated 2011)",
  "assay": "Solubility of [RuCl2(arene)]2 complexes in 100 ml of solvent at 25° C. in various solvents",
  "data": [
    {"substance": "[RuCl2(mesitylene)]2", "values": [
      {"measurement": "solubility in 100 ml of solvent, Acetone", "setting": "solvent Acetone", "value": 0.01, "unit": "g/100 ml"},
      {"measurement": "solubility in 100 ml of solvent, Chloroform", "setting": "solvent Chloroform", "value": 0.3, "unit": "g/100 ml"},
      {"measurement": "solubility in 100 ml of solvent, Methanol", "setting": "solvent Methanol", "value": 0.03, "unit": "g/100 ml"},
      {"measurement": "solubility in 100 ml of solvent, THF", "setting": "solvent THF", "value": 0.5, "unit": "g/100 ml"},
      {"measurement": "solubility in 100 ml of solvent, Toluene", "setting": "solvent Toluene", "value": 0.2, "unit": "g/100 ml"}
    ]}
  ]
}
